One series relates to LYPLA1/2. Nature of the series: Gel filtration to assess mode of action, HeLa cell lysate. The following applies: 200 nM or 1000 nM, FP-Rh labeling before and after gel filtration. The series is classed as biochemical, human. As for the experimental part:
In this assay, a complex proteome was incubated with test compound and a fraction of the assay mixture was passaged over a Sephadex G-25M column before reaction with FP-Rh and SDS-PAGE analysis as described above.
Protocol Summary: HeLa cell lysate (1 mL of 1 mg/ml in DPBS) was treated with test compound (200 nM or 1000 nM, from 50× stock in DMSO) or DMSO only (no compound control). Test compounds were incubated for 30 minutes at 37° C. An aliquot (50 μL) was removed from each reaction, and the remaining sample was passaged over a Sephadex G-25M desalting column. An aliquot (50 μL, 1 mg/mL protein, eluted in DPBS) was removed, and pre- and post-filtration aliquots were reacted with FP-Rh (50× stock in DMSO; 2 μM final concentration). The reaction was incubated for 30 minutes at 25° C., quenched with 16 μL 4× SDS-PAGE loading buffer (reducing), separated by SDS-PAGE and visualized by in-gel fluorescent scanning. The percentage activity remaining was determined by measuring the integrated optical density of the LYPLA1/2 bands (quantified together) relative to a DMSO-only (no compound) control. The percent recovery was calculated by comparing percent inhibition before and after gel filtration for each test compound concentration.
For orientation: In gel filtration, larger molecules generally elute earlier.

A further series can be described thus: Stability in PBS. The series is classed as physicochemical. The following applies: 10 μM compound, ambient temperature. How it is done:
Samples were held in the HPLC autosampler at ambient temperature. At approximately 0, 1, 2, 4, 8, 24, and 48 hours the samples were injected on the HPLC. Peak area and retention time were compared between injections. Data was log transformed and represented as half-life. DMSO was added as a co-solvent as needed for solubility.

In another series the target is T1, human LYPLA1 (Homo sapiens, UniProt O75608).
T1 construct: endogenous human LYPLA1/2 in a HeLa soluble proteome; endogenous in cells; host or cells: HeLa (soluble proteome in vitro; cultured cells in situ)
T1 sequence (O75608 whole entry): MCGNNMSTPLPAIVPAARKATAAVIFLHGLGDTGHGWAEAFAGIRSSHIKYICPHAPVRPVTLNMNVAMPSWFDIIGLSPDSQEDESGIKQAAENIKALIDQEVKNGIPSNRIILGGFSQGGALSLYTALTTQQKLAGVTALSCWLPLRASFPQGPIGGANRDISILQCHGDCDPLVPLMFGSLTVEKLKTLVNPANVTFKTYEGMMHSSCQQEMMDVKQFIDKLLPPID
Description: IC50 by gel-based competitive ABPP in situ, cultured HeLa cells. The series is classed as cell-based. The following applies: 2 h, serum-supplemented medium. As for the experimental part: (§1) Assay Overview: The purpose of this assay was to determine IC50 values of powder samples of test compounds for enzyme of interest activity in situ using a gel-based competitive ABPP assay. In this assay, cultured cells were treated with test compound, harvested, and lysed. The isolated soluble proteome fraction was reacted with FP-Rh and analyzed by SDS-PAGE as described above.
(§2) Protocol Summary: To cultured HeLa cells (90% confluent) was added fresh DMEM (5 mL total volume; supplemented with 10% FCS) pre-mixed with DMSO or test compound. After 2 hours at 37° C., cells were harvested by scraping, washed twice with 10 mL DPBS, and homogenized by sonication in DPBS. The soluble fraction was isolated by centrifugation (100K×g, 45 minutes) and the protein concentration was adjusted to 1 mg/mL with DPBS. FP-Rh (1 μL of 50× stock in DMSO) was added to a final concentration of 2 μM in 50 μL total reaction volume. The reaction was incubated for 30 minutes at 25° C., quenched with 16 μL 4×SDS-PAGE loading buffer (reducing), separated by SDS-PAGE and visualized by in-gel fluorescent scanning. The percentage activity remaining was determined by measuring the integrated optical density of the enzymes of interest, and anti-target bands relative to a DMSO-only (no compound) control. […]

The target in another series is T2, human LYPLA2 (Homo sapiens, UniProt O95372).
T2 construct: endogenous human LYPLA1/2 in a HeLa soluble proteome; endogenous in cells; host or cells: HeLa (soluble proteome in vitro; cultured cells in situ)
T2 sequence (O95372 whole entry): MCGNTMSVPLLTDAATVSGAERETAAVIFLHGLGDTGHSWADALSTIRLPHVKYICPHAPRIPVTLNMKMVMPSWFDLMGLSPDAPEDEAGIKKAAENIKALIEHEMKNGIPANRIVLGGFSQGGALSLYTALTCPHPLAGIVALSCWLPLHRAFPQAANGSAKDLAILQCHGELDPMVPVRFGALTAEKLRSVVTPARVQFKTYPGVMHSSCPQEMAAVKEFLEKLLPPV
The series is described as above. The series is classed as cell-based. The following applies: 2 h, serum-supplemented medium. How it is done:
as §1, §2

Series [1] is described as follows: Determination of glutathione reactivity. The series is classed as physicochemical. The following applies: 10 μM compound, 50 μM glutathione, 37° C., 6 h. How it is done:
Compound (10 μM) was incubated at 37° C. for 6 hours in the presence of 50 μM freshly prepared reduced glutathione. At 0 and 6 hours the samples were injected into the HPLC instrument. Peak area and retention time were compared between injections. Samples were evaluated for a glutathione dependent decrease in compound concentration. DMSO was added as a co-solvent as needed for solubility.

The test system of series [2] is SH anti-targets in HeLa cells. Nature of the series: Gel-based competitive ABPP in situ, cultured HeLa cells, anti-targets. The series is classed as cell-based, human. The following applies: 2 h, any compound concentration, ABHD6 not visible. How it is done: as §1
as §2, with “The reaction was incubated for 30 minutes at 25° C., quenched with 16 μL 4×SDS-PAGE loading buffer (reducing), separated by SDS-PAGE and visualized by in-gel fluorescent scanning.” left out
Compound 1 is active in situ against the LYPLA enzymes (see FIG. 3A) as assessed by gel-based competitive ABPP with FP-Rh following two hours of compound treatment of HeLa cells cultured in serum-supplemented medium.

The target in a further series is T3, ABHD4 (Mus musculus, UniProt Q8VD66).
T3 construct: from tissue; host or cells: tissues of C57BL6 mice
T3 sequence (Q8VD66 whole entry): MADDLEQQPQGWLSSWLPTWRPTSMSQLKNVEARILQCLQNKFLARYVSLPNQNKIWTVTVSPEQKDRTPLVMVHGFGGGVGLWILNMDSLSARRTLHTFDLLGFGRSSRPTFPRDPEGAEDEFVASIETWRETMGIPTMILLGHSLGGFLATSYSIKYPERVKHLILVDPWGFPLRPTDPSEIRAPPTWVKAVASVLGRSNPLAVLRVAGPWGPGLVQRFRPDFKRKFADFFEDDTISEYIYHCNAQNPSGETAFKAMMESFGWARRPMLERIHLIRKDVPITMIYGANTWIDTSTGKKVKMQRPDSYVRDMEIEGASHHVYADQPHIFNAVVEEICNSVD
Nature of the series: Inhibition by gel-based competitive ABPP in vivo. The following applies: 1-40 mg/kg i.p., 4 h, any tissue examined. How it is done: Compound 26, Compound 34, and Compound 1 were administered across a dose range of 1-40 mg/kg to C57BL6 mice by intraperitoneal injection, and, after 4 hours, animals were sacrificed and tissues harvested for analysis by gel-based ABPP using the FP-Rh probe and the Compound 39 probe.

pIC50: −log10 of the molar value.

Take `O=C(ON1C(=O)C2CN(C(=O)N3CCOCC3)CCN2C1=O)N1CCC(CCc2ccc(Cl)cc2)CC1` (stereo not shown) [Compound 1, 7-(morpholine-4-carbonyl)-1,3-dioxohexahydroimidazo[1,5-a]pyrazin-2(3H)-yl 4-(4-chloro-phenethyl)piperidine-1-carboxylate]: the “binding mode (gel filtration)” value in the series on LYPLA1/2 is given as “irreversible inhibitor”. In “Stability in PBS”, this compound gave a half-life at 10 µM of 19 h. For the same compound, the pIC50 at human LYPLA1 is 7.06; at human LYPLA2 it was 6.84. Further, in series [1], the reactivity with glutathione entry was “did not show any reactivity”. For the same compound, the “anti-target inhibition in situ” value in series [2] is on record as “No anti-target inhibition”.
As for `O=C(ON1C(=O)C2CN(Cc3ccc(Oc4ccccc4)cc3)CCN2C1=O)N1CCOCC1` (stereo not shown) [Compound 34, 1,3-dioxo-7-(4-phenoxybenzyl)hexahydroimidazo[1,5-a]pyrazin-2(3H)-yl morpholine-4-carboxylate], the “blockade of ABHD4 in vivo” value at ABHD4 is given as “did not block the activity of ABHD4 in any tissue examined”.

In general, half-life refers to the time in which the quantity being followed falls by half. Higher therefore signals slow loss. For orientation: pIC50 means the IC50 on a negative log10 scale, so that one unit is a factor of ten. Higher therefore signals a small IC50.

Values taken from US9981972B2, “N-hydroxy bicyclic hydantoin carbamates as tools for identification of serine hydrolase targets” (ABIDE THERAPEUTICS, INC., priority 2014, dated 2018).
